For 19 molecules, IC50 results are on record in patent publication US20250136612A1, “4',5'-DIHYDROSPIRO[PIPERIDINE-4,7'-THIENO[2,3-C]PYRAN] DERIVATIVES AS INHIBITORS OF APOL1 AND METHODS OF USING SAME” (VERTEX PHARMACEUTICALS INCORPORATED, priority 2022, published 2025).

Structures are written as SMILES.

For the assay, the target named is T1, APOL1 (Homo sapiens, UniProt O14791).
T1 sequence (O14791 1-398 S342G/I384M): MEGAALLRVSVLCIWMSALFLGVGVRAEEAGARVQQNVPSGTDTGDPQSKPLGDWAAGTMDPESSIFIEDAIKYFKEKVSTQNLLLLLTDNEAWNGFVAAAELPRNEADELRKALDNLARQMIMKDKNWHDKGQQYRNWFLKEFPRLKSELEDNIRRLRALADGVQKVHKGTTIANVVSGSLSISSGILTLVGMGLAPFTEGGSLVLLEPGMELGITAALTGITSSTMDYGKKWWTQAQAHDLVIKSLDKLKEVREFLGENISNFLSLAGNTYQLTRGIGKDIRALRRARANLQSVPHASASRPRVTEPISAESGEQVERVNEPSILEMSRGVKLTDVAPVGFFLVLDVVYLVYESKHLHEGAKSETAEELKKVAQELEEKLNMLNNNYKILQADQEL
Kind of assay: MultiTox-Fluor Multiplex Cytotoxicity Assay in tet-inducible APOL1 T-REx-HEK293 cells. As to conditions: 50 ng/mL tet, 24 hours, ratio of dead to live cells, read-out: IP50 (i.e., IC50 for cell proliferation). It is filed as cell-based. As to the method:
The MultiTox-Fluor Multiplex Cytotoxicity Assay is a single-reagent-addition, homogeneous, fluorescence assay that measures the number of live and dead cells simultaneously in culture wells. The assay measures cell viability and cytotoxicity by detecting two distinct protease activities. The live-cell protease activity is restricted to intact viable cells and is measured using a fluorogenic, cell-permeant peptide glycyl-phenylalanylamino fluorocoumarin (GF-AFC) substrate. The substrate enters intact cells, where it is cleaved to generate a fluorescent signal proportional to the number of living cells. […] A second, cell-impermeant, fluorogenic peptide substrate (bis-AAF-R110 Substrate) is used to measure dead-cell protease that has been released from cells that have lost membrane integrity. A ratio of dead to live cells is used to normalize data.
Briefly, the tet-inducible transgenic APOL1 T-REx-HEK293 cell lines were incubated with 50 ng/mL tet to induce APOL1 in the presence of 3-(2-(4-fluorophenyl)-1H-indol-3-yl)-N-((3S,4R)-4-hydroxy-2-oxopyrrolidin-3-yl)propenamide at 10.03, 3.24, 1.13, 0.356, 0.129, 0.042, 0.129, 0.0045, 0.0015, 0.0005 μM in duplicate for 24 hours in a humidified 37° C. incubator. The MultiTox reagent was added to each well and placed back in the incubator for an additional 30 minutes. The plate was read on the EnVision plate reader. A ratio of dead to live cells was used to normalize, and data was imported, analyzed, and fit using Genedata Screener (Basel, Switzerland) software. Data was normalized using percent of control, no tet (100% viability), and 50 ng/mL tet treated (0% viability),and fit using Smart Fit. The reagents, methods, and complete protocol for the MultiTox assay are described below.
Human embryonic kidney (HEK293) cell lines containing a tet-inducible expression system (T-REx™; Invitrogen, Carlsbad, CA) and Adeno-associated virus site 1 pAAVS1-Puro-APOL1 G0 or pAAVS1-Puro-APOL1 G1 or pAAVS1-Puro-APOL1 G2 Clones G0 DC2.13, G1 DC3.25, and G2 DC4.44 were grown in a T-225 flask at ˜90% confluency in cell growth media (DMEM, 10% Tet-free FBS, 2 mM L-glutamine, 100 Units/mL penicillin-streptomycin, 5 μg/mL blasticidin S HCl, 1 μg/mL puromycin dihydrochloride). Cells were washed with DPBS and then trypsinized to dissociate from the flask. Media was used to quench the trypsin, cells were then pelleted at 200 g and resuspended in fresh cell assay media (DMEM, 2% Tet-free FBS, 2 mM L-glutamine, 100 Units/mL penicillin-streptomycin). Cells were counted and diluted to 1.17×10^6 cells/mL. 20 μL of cells (23,400/well) were dispensed in every well of a 384-well Poly-D-Lysine coated plate using the Multidrop dispenser. The plates were then incubated at room temperature for one hour.
Tetracycline is needed to induce APOL1 expression. 1 mg/mL tet stock in water was diluted to 250 ng/mL (5×) in cell assay media. 60 μL of cell assay media (no tet control) was dispensed in columns 1 and 24, and 60 μL of 5×tet in 384-PP-round bottom plate was dispensed in columns 2 to 23 with the Multidrop dispenser.
Assay ready plates from the Global Compound Archive were ordered using template 384_APOL1Cell_DR10n2_50 uM_v3. Compounds were dispensed at 200 nL in DMSO. The final top concentration was 10 μM with a 10 point 3-fold dilution in duplicate in the MultiTox assay.
20 μL was transferred from the 5×tet plate to the ARP and mixed, then 5 μL of 5×tet and the compounds were transferred to the cell plate and mixed using the Bravo. The cell plate was placed in the humidified 37° C. 5% CO2 incubator for 24 hours.
The MultiTox-Fluor Multiplex Cytotoxicity Assay was performed in accordance with the manufacturer's protocol. After cells were incubated with tet and compound for 24 hours, 25 μL of 1×MultiTox reagent was added to each well using the Multidrop dispenser; the plates were placed on a plate shaker (600 rpm) for 2 minutes, then centrifuged briefly and placed back in the 37° C. incubator for 30 minutes. […]
For the molecule `Cc1cc([C@@H]2C[C@]3(CCN2)OCC(O)c2cc(Cl)sc23)on1` (stereo partly drawn) [Compound 34, (2S,4S)-2′-chloro-2-(3-methylisoxazol-5-yl)-4′,5′-dihydrospiro[piperidine-4,7′-thieno[2,3-c]pyran]-4′-ol], the IC50 was in the range of 100 to 500 nM.
In the case of `Cn1cc([C@@H]2C[C@]3(CCN2)OCC(O)c2cc(Cl)sc23)nn1` (stereo partly drawn) [Compound 35, (2S,4S)-2′-chloro-2-(1-methyl-1H-1,2,3-triazol-4-yl)-4′,5′-dihydrospiro[piperidine-4,7′-thieno[2,3-c]pyran]-4′-ol] it was 100 to 500 nM; in that of `Cn1cc([C@@H]2C[C@]3(CCN2)OCC(O)c2cc(Cl)sc23)nn1` (stereo partly drawn) [Compound 36, (2S,4S)-2′-chloro-2-(1-methyl-1H-1,2,3-triazol-4-yl)-4′,5′-dihydrospiro[piperidine-4,7′-thieno[2,3-c]pyran]-4′-ol], 100 to 500 nM.
Under `Cn1cc([C@@H]2C[C@]3(CCN2)OCC(=O)c2cc(Cl)sc23)nn1` [Compound 41, (2S,4S)-2′-chloro-2-(1-methyltriazol-4-yl)spiro[piperidine-4,7′-thieno[2,3-c]pyran]-4′-one] stands 100 to 500 nM; under `[2H]C1([2H])CO[C@]2(CCN[C@H](c3cn(C)nn3)C2)c2sc(Cl)cc21` [Compound 43, (2'S, 7S)-2-chloro-4,4-dideuterio-2′-(1-methyltriazol-4-yl)spiro[5H-thieno[2,3-c]pyran-7,4′-piperidine]], 100 to 500 nM.
In the case of `Cn1cc(C2CC3(CCN2)OCCc2cc(C4CC(F)(F)C4)sc23)nn1` (stereo not shown) [Compound 46, 2-(3,3-difluorocyclobutyl)-2′-(1-methyltriazol-4-yl)spiro[4,5-dihydrothieno[2,3-c]pyran-7,4′-piperidine]] it was 100 to 500 nM; in that of `Cn1cc(C2CC3(CCN2)OCC(O)c2cc(C4CC(F)(F)C4)sc23)nn1` (stereo not shown) [Compound 47], 500 to 1000 nM; in that of `Cn1cc([C@@H]2CC3(CCN2)OCCc2cc(CC(F)(F)F)sc23)nn1` (stereo partly shown) [Compound 48], 100 to 500 nM.
Take `Cn1cc(C2CC3(CCN2)OCCc2cc(CC(F)F)sc23)nn1` (stereo not shown) [Compound 49]: the IC50 was below 100 nM.
Take `FC(F)Cc1cc2c(s1)C1(CCNC(c3ccccc3)C1)OCC2` (stereo not shown) [Compound 50]: the IC50 fell in the range of 100 to 500 nM.
Under `Cn1cc([C@@H]2CC3(CCN2)OCCc2c3sc(C(F)(F)F)c2CO)nn1` (stereo partly drawn) [Compound 51, ((2S)-2-(1-methyl-1H-1,2,3-triazol-4-yl)-2′-(trifluoromethyl)-4′,5′-dihydrospiro[piperidine-4,7′-thieno[2,3-c]pyran]-3′-yl)methanol] stands below 100 nM; under `NC(=O)c1cccc(-n2cc([C@@H]3C[C@]4(CCN3)OCCc3cc(Cl)sc34)nn2)c1` [Compound 54, 3-(4-((2S,4S)-2′-chloro-4′,5′-dihydrospiro[piperidine-4,7′-thieno[2,3-c]pyran]-2-yl)-1H-1,2,3-triazol-1-yl)benzamide], below 100 nM.
Under `Clc1cc2c(s1)[C@@]1(CCN[C@H](c3cn(-c4ccccc4)nn3)C1)OCC2` [Compound 55, (2S,4S)-2′-chloro-2-(1-phenyl-1H-1,2,3-triazol-4-yl)-4′,5′-dihydrospiro[piperidine-4,7′-thieno[2,3-c]pyran]] stands 100 to 500 nM.
Under `O=C1NCc2ccc(-n3cc([C@@H]4C[C@]5(CCN4)OCCc4cc(Cl)sc45)nn3)cc21` [Compound 56] stands below 100 nM; under `NC(=O)c1cc(-n2cc([C@@H]3C[C@]4(CCN3)OCCc3cc(Cl)sc34)nn2)ccc1F` [Compound 57], below 100 nM.
As to `CNC(=O)c1cc(-n2cc([C@@H]3C[C@]4(CCN3)OCCc3cc(Cl)sc34)nn2)ccc1OC` [Compound 58], the IC50 lay within 100 to 500 nM.
In the case of `NC(=O)c1ccc(-n2cc([C@@H]3C[C@]4(CCN3)OCCc3cc(Cl)sc34)nn2)cc1` [Compound 59] it was 100 to 500 nM; in that of `CN1Cc2cc(-n3cc([C@@H]4C[C@]5(CCN4)OCCc4cc(Cl)sc45)nn3)ccc2C1=O` [Compound 60], 100 to 500 nM.
Under `O=C1NCc2cc(-n3cc([C@@H]4C[C@]5(CCN4)OCCc4cc(Cl)sc45)nn3)ccc21` [Compound 61] stands 100 to 500 nM.
